Source: US7691374B2, “Method for increasing the efficacy of anti-tumor agents by anti-endoglin antibody” (Health Research, Inc., priority 2002, dated 2010)

Experiments:
Colon-26 tumors = assay: Therapy of established Colon-26 tumors in BALB/c mice; assay type: in vivo; details: SN6j 1.8 μg/g i.v., DOX 0.5 μg/g i.p.
Protocol: Antiangiogenic Therapy of Preformed Colon Tumors in Mice. Colon-26 cells (1.25×10^5 cells in 0.1 ml PBS) were inoculated subcutaneously (s.c.) into left flank of BALB/c mice. […] Doxorubicin (0.5 μg/g body weight) was injected intraperitoneally (i.p.) into mice. The administration was repeated three times at 4 days intervals.
Follow-up of Treatment Efficacy.
SN6j (1.8 μg/g body weight) and MOPC195v (1.8 μg/g body weight) were injected i.v. while DOX (0.5 μg/g body weight) was injected i.p. The injectections were repeated three times at 4 days intervals.
Details of the analysis were described by Yokoyama et al. (31), Yu et al. (32) and us (25). […] This improvement persisted until the end of the therapy experiment (Table 3).

[1] = test system: human vessels in the tumors; assay: Count of human vessels in tumors after therapy; assay type: in vivo; details: large tumors at end of experiment of FIG. 7
From the text: (§1) Large tumors of two different sizes (i.e., 350-450 mm^3 and 100-250 mm^3) were obtained from each group of mice for immunostaining and vessel counting. Sections of the tumors were stained with individual mAbs or a mixture of anti-human CD105 and CD31 mAbs and a mixture of anti-mouse CD105 and CD31 mAbs as described above. Human and mouse vessels were counted separately as described above. An average of vessel counts in the two tumors was compared between different groups.
(§2) Human and murine blood vessels were immunostained in the large human tumors from the chimera mice after the mice were sacrificed at the end of experiment shown in FIG. 7. Number of murine vessels in the tumors was 52, 47, 47 and 34 per 100× field for groups A, B, C and D, respectively (see FIG. 7 for the groups). Therefore, SN6j (group B) and CPA (group C) caused only a small decrease (approximately 10%) in the number of murine vessels in the tumors compared with the control (group A). However, combination of SN6j and CPA (group D) caused a larger (i.e., 35%) decrease in the number of murine vessels. […] CPA was not effective for inhibiting human vessels and only weakly suppressive against murine vessels.

[2] = test system: murine vessels in the tumors; assay: Count of murine vessels in tumors after therapy; assay type: in vivo, mouse; details: large tumors at end of experiment of FIG. 7
From the text: as §1, §2

SMILES | Fractional tumor volume (FTV) relative to untreated controls (Colon-26 tumors; Day 4 after tumor cell inoculation, all mice) | Fractional tumor volume (FTV) relative to untreated controls (Colon-26 tumors; Day 4 after tumor cell inoculation, tumors of >4 mm^3 at onset of therapy) | Fractional tumor volume (FTV) relative to untreated controls (Colon-26 tumors; Day 7 after tumor cell inoculation, all mice) | Fractional tumor volume (FTV) relative to untreated controls (Colon-26 tumors; Day 7 after tumor cell inoculation, tumors of >4 mm^3 at onset of therapy) | Fractional tumor volume (FTV) relative to untreated controls (Colon-26 tumors; Day 9 after tumor cell inoculation, all mice) | Fractional tumor volume (FTV) relative to untreated controls (Colon-26 tumors; Day 9 after tumor cell inoculation, tumors of >4 mm^3 at onset of therapy) | Fractional tumor volume (FTV) relative to untreated controls (Colon-26 tumors; Day 11 after tumor cell inoculation, all mice) | Fractional tumor volume (FTV) relative to untreated controls (Colon-26 tumors; Day 11 after tumor cell inoculation, tumors of >4 mm^3 at onset of therapy) | Fractional tumor volume (FTV) relative to untreated controls (Colon-26 tumors; Day 13 after tumor cell inoculation, all mice) | Fractional tumor volume (FTV) relative to untreated controls (Colon-26 tumors; Day 13 after tumor cell inoculation, tumors of >4 mm^3 at onset of therapy) | Fractional tumor volume (FTV) relative to untreated controls (Colon-26 tumors; Day 15 after tumor cell inoculation, all mice) | Fractional tumor volume (FTV) relative to untreated controls (Colon-26 tumors; Day 15 after tumor cell inoculation, tumors of >4 mm^3 at onset of therapy) | Fractional tumor volume (FTV) relative to untreated controls (Colon-26 tumors; Day 17 after tumor cell inoculation, all mice) | Fractional tumor volume (FTV) relative to untreated controls (Colon-26 tumors; Day 17 after tumor cell inoculation, tumors of >4 mm^3 at onset of therapy) | Fractional tumor volume (FTV) relative to untreated controls (Colon-26 tumors; Day 19 after tumor cell inoculation, all mice) | Fractional tumor volume (FTV) relative to untreated controls (Colon-26 tumors; Day 19 after tumor cell inoculation, tumors of >4 mm^3 at onset of therapy) | number of human vessels in the tumors per 100× field [1] [per 100× field] | decrease in the number of murine vessels compared with the control [2] | number of murine vessels in the tumors per 100× field [2] [per 100× field]
COc1cccc2c1C(=O)c1c(O)c3c(c(O)c1C2=O)C[C@@](O)(C(=O)CO)C[C@@H]3O[C@H]1C[C@H](N)[C@H](O)[C@H](C)O1 [DOX, Doxorubicin] | 0.954 | 0.979 | 0.741 | 0.753 | 0.895 | 0.954 | 0.956 | 1.018 | 0.860 | 1.009 | 0.976 | 1.159 | 0.813 | 0.954 | 0.873 | 1.101 | – | – | –
O=P1(N(CCCl)CCCl)NCCCO1 (stereo not shown) [CPA, cyclophosphamide] | – | – | – | – | – | – | – | – | – | – | – | – | – | – | – | – | 36 | approximately 10% | 47
